Results from ChEMBL document CHEMBL2150997, “Profiling of a prescription drug library for potential renal drug-drug interactions mediated by the organic cation transporter 2” (J Med Chem, 2011).

What was measured:
[1] = Cmax in human; assay type: ADME, organism-based; details: in vivo
[2] = biological target: T1, Solute carrier family 22 member 2 (Homo sapiens, UniProt O15244); assay type: ADME, cell-based
T1 sequence (O15244 whole entry): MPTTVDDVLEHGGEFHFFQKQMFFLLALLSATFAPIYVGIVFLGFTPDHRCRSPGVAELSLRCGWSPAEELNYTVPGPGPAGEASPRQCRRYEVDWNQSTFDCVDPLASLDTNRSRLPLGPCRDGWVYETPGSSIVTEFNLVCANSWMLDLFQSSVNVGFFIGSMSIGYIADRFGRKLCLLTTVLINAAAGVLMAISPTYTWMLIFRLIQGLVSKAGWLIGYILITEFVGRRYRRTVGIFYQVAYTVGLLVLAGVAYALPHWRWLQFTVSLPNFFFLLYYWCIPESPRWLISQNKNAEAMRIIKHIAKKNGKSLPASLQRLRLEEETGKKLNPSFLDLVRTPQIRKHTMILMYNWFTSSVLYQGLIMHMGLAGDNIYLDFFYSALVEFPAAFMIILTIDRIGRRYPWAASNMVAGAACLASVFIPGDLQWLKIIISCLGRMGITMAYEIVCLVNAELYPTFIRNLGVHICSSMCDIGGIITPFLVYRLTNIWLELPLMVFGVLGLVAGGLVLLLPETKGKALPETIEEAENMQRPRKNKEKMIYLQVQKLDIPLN
Description: Inhibition of human OCT2 expressed in HEK-293-Flp-In cells incubated for 3 mins by ASP+ substrate uptake assay

[3] = biological target: T2, Solute carrier family 22 member 1 (Homo sapiens, UniProt O15245); assay type: ADME, cell-based
T2 sequence (O15245 whole entry): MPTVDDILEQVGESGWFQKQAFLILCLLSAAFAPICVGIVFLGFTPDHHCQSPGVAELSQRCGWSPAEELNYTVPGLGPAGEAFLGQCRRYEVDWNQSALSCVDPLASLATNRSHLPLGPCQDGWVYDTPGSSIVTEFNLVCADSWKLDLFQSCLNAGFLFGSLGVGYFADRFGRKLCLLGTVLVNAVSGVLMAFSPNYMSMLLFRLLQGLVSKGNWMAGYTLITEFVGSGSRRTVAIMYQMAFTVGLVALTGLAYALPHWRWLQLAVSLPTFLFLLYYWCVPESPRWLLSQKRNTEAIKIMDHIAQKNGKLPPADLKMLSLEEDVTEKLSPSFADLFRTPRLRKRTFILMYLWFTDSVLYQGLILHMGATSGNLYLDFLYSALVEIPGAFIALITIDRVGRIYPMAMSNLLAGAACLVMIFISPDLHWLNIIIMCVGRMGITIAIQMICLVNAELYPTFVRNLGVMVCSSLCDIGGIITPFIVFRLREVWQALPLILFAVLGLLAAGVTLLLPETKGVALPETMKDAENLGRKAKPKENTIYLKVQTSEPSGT
Description: Inhibition of human OCT1 expressed in HEK-293-Flp-In cells incubated for 3 mins by ASP+ substrate uptake assay

[4] = Protein binding in human plasma; assay type: ADME, cell-free; details: read-out: PPB (converted)
[5] = biological target: T3, Multidrug and toxin extrusion protein 2 (Homo sapiens, UniProt Q86VL8)
T3 sequence (Q86VL8 whole entry): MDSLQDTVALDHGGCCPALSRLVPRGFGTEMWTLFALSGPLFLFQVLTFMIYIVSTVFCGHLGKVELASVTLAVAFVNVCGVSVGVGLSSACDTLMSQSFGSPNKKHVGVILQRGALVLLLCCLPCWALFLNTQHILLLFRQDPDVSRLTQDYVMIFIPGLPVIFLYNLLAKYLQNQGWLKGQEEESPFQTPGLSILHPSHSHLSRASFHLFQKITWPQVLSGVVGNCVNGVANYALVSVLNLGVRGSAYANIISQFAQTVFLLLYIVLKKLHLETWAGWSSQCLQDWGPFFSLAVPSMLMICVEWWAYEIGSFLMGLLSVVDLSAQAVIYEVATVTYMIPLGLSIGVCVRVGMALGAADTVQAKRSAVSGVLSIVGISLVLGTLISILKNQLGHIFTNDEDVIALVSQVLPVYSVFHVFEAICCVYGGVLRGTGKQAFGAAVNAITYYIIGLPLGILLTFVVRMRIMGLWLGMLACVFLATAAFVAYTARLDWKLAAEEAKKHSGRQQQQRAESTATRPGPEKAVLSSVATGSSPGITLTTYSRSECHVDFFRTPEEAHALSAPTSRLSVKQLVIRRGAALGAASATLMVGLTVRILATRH
Description: Inhibition of human MATE2-K expressed in HEK-293-Flp-In cells incubated for 3 mins by ASP+ substrate uptake assay

[6] = cells; details: Homo sapiens, 0.05 h
Description: Inhibition of human OCT2 A270S mutant expressed in HEK-293-Flp-In cells incubated for 3 mins by ASP+ substrate uptake assay

[7] = biological target: T4, Multidrug and toxin extrusion protein 1 (Homo sapiens, UniProt Q96FL8)
T4 sequence (Q96FL8 whole entry): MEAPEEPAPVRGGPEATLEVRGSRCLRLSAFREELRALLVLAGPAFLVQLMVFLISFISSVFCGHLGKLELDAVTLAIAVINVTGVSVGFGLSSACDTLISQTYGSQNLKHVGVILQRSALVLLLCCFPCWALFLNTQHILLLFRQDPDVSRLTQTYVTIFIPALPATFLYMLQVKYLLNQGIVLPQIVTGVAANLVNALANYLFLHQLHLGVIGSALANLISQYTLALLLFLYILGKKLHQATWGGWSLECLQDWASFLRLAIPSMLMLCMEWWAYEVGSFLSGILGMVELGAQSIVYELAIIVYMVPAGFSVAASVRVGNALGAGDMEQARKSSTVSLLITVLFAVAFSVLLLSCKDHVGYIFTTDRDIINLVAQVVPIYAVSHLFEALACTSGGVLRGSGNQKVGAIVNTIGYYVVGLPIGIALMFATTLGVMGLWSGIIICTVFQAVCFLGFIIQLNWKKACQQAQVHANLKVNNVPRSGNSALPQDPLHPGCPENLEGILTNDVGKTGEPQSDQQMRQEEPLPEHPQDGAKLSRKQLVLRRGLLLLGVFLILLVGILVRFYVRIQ
Description: Inhibition of human MATE1 expressed in HEK-293-Flp-In cells incubated for 3 mins by ASP+ substrate uptake assay

## CN/C(=N\CCSCc1nc[nH]c1C)NC#N [CIMETIDINE]
[1]
  Cmax: 11.9 µM
[2]
  IC50: 23 µM
[3]
  IC50: > 100 µM
[4]
  fraction unbound: 0.81
[5]
  IC50: 39 µM
[6]
  IC50: 20 µM

## OCCN(CCO)c1nc(N2CCCCC2)c2nc(N(CCO)CCO)nc(N3CCCCC3)c2n1 [DIPYRIDAMOLE]
[3]
  IC50: 81 µM

## Cc1nccn1CC1CCc2c(c3ccccc3n2C)C1=O (centres undefined) [ONDANSETRON]
[1]
  Cmax: 0.13 µM
[3]
  IC50: > 100 µM

## Nc1c2c(nc3ccccc13)CCCC2 [TACRINE]
[3]
  IC50: 83 µM
[4]
  fraction unbound: 0.45
[5]
  IC50: > 100 µM

## CN(C)CCCN1c2ccccc2CCc2ccccc21 [IMIPRAMINE]
[3]
  IC50: 37 µM
[4]
  fraction unbound: 0.1
[7]
  IC50: 10 µM
[5]
  IC50: > 100 µM

## CC(C)N(CCC(C(N)=O)(c1ccccc1)c1ccccn1)C(C)C (centres undefined) [DISOPYRAMIDE]
[4]
  fraction unbound: 0.5
[7]
  IC50: 66 µM
[5]
  IC50: > 100 µM
